Laboratory results taken from patent US8466195B2, “Methods and compositions for treating complications of diabetes and vascular diseases using flavones” (Salk Institute for Biological Studies, priority 2009, dated 2013).
“Also recorded” adds a separate entry of the source.

Columns and labels:
HT22 cells = assay: GSH level in HT22 cells; assay type: cell-based; settings: 10 μM fisetin, absence or presence of 5 mM glutamate, 24 hr
Protocol: As shown in panel (A) of FIG. 3, HT22 cells were untreated (ct) or treated with 10 μM fisetin (fis) in the absence of presence of 5 mM glutamate for 24 hr and GSH was measured enzymatically and normalized to protein. As shown in panel (B) of FIG. 3, HT22 cells in 96-well plates were treated with 5 mM glutamate and the indicated concentrations of fisetin. MTT reduction was measured after 24 hr.

Akita mice [1] = assay: Thermal latency response of hind paw in Akita mice; assay type: in vivo; settings: fisetin 0.05% in diet for 18 weeks
Protocol: Mice were placed in an observation chamber on the surface (floor temperature 30° C.) of a modified Hargreaves apparatus (UARD, San Diego, Calif.) and allowed to acclimate for 5 min. For measurement of thermal response latency, a heat source that warmed the chamber surface at approximately 1° C./sec was moved underneath the hind paw and the time to foot withdrawal recorded automatically. The procedure was repeated 4 times on the same paw at 5 min intervals and the median of values 2-4 used to represent the thermal response latency.
Male Akita mice were fed control diet or fisetin (0.05%) for 18 weeks beginning at 6 weeks of age. Large fiber function was tested by measuring motor nerve conduction velocity and small fiber function by paw withdrawal to noxious heat. Diabetes-induced MNCV slowing and thermal hypoalgesia were ameliorated by fisetin treatment. All data are mean±SD of N=5-7/group. […] P<0.05.

Akita mice [2] = assay: Urine albumin/creatinine ratio in Akita mice; assay type: in vivo; settings: fisetin 0.05% in diet for 18 weeks
Protocol: (§1) Urine albumin concentration was determined by competitive enzyme-linked immunoadsorbent assay using an Albuwell M kit (Exocell, Philadelphia, Pa.). Urine creatinine concentration was determined by Jaffe's reaction of alkaline picrate with creatinine using a Creatinine Companion kit (Exocell). Results are expressed as the urine albumin-to-creatinine ratio (micrograms per milligram).
(§2) Male Akita mice were fed control diet or fisetin (0.05%) for 18 weeks beginning at 6 weeks of age. Kidney hypertrophy was assessed by weighing the kidneys. Kidney function was assessed by measuring the albumin/creatinine ratio in the urine. Fisetin reduced diabetes-induced renal hypertrophy and proteinuria. All data are mean±SD of N=5-7/group.

HT-22 nerve cells = HT-22 nerve cells exposed to glutamate: MG adducts and viability; assay type: cell-based; settings: 5 mM glutamate, 2 μM fisetin
Protocol: HT-22 nerve cells were exposed to 0.5 mM glutamate and Glo-1 expression monitored at 8 and 24 hrs. In panel (B) of FIG. 2, Fisetin is shown to prevent both cell death and protein glycation. HT-22 cells were exposed to 5 mM glutamate in the presence or absence of 2 μM fisetin. MG adducts were determined by Western blotting 8 hrs after glutamate exposure and viability after 24 hrs. Actin is at the bottom of the blot. In panel (C) of FIG. 2, the Glo-1 inhibitor s-p-bromobenzylglutathione […] is shown to potentiate cell death. HT-22 cells were exposed to 1 mM glutamate plus or minus 10 or 20 μM BBGD.

C-reactive protein = assay: Serum C-reactive protein in Akita mice (Western blot); assay type: in vivo; settings: fisetin-rich diet
Protocol: C-reactive protein in serum was measured by SDS-PAGE and Western blotting analysis of mouse serum using an antibody from R&D.
C-reactive protein is an acute phase protein that increases during chronic inflammation such as is seen in diabetes. Equal amounts of serum from wild type, wild type+fisetin, Akita and Akita+fisetin mice were analyzed by SDS-PAGE and immunoblotting with an antibody to C-reactive protein. Samples from 6-7 mice were analyzed and the average intensity of the C-reactive protein band determined. The data were analyzed by ANOVA followed by Tukey's post test. *** P<0.001.

[3] = system: peripheral and CNS immune cells; settings: peripheral [17] and CNS [8] immune cells; cited from earlier work
Akita mice [4] = assay: Kidney hypertrophy (kidney weight) in Akita mice; assay type: in vivo; settings: fisetin 0.05% in diet for 18 weeks
Protocol: as §2

STZ-diabetic rats = assay: Kidney function (urine albumin/creatinine ratio) in STZ-diabetic rats; assay type: in vivo, Sprague-Dawley rats; settings: 25 mg/kg/day fisetin; 6 and 8 weeks after induction of diabetes
Protocol: as §1
Adult female Sprague-Dawley rats were made diabetic with STZ and treated with vehicle or 25 mg/kg/day fisetin. Kidney function was assessed by measuring the albumin/creatinine ratio in the urine at 6 and 8 weeks following induction of diabetes. Fisetin reduced diabetes-induced proteinuria. Data are mean±SEM of N=7-8/group.

[5] = system: human brain microvascular cells; assay: Protein glycation in human brain microvascular cells exposed to glucose; assay type: cell-based; settings: 1 μM fisetin
Protocol: In reference to FIG. 1, BSA was incubated with either 100 mM glucose (G) or 100 mM methylglyoxal (MG) for 14 days at 37° C. plus or minus 100 μM fisetin. The BSA was dialyzed vs. PBS run on SDS-PAGE and blotted with anti-carboxymethyl lysine (CML) (a glucose AGE) or anti-MG adducts from Dr. Brownlee. […] In FIG. 1, panel B, anti-MG only reacts with MG treated BSA and also causes protein polymerization. In FIG. 1, panel C, co-incubation with fisetin results in inhibition of glucose glycation in 2 assays, Western blotting with a-CML (BL, hatched bars) and a fluorescence assay for protein glycation (FL, clear bars). In FIG. 1, panel D, fisetin inhibited protein glycation caused by high glucose exposure of human brain microvascular cells. Cells were exposed to either 5 mM (−Glu) or 25 mM (+Glu) glucose for 5 days plus (F) or minus (C) 1 μM fisetin. Cells were then harvested and blotted with either anti-CML or MG antisera.

O=c1c(O)c(-c2ccc(O)c(O)c2)oc2cc(O)ccc12 [fisetin, 2-(3,4-dihydroxyphenyl)-3,7-dihydroxychromen-4-one]
GSH (HT22 cells): Upregulation | thermal hypoalgesia (hind paw thermal latency) (Akita mice [1]): ameliorated; also recorded: prevented | proteinuria (urine albumin/creatinine ratio) (Akita mice [2]): almost completely prevented | proteinuria (urine albumin/creatinine ratio) (Akita mice [2]; listed as Fisetin): reduced | protein glycation (MG adducts) (HT-22 nerve cells; Western blotting 8 hrs after glutamate): prevent | cell death (HT-22 nerve cells; viability after 24 hrs): prevent | diabetes-induced increase in serum C-reactive protein (C-reactive protein): largely prevented | anti-inflammatory activity [3]: anti-inflammatory activity | diabetes-induced renal hypertrophy (kidney weight) (Akita mice [4]): greatly reduced | diabetes-induced renal hypertrophy (kidney weight) (Akita mice [4]; listed as Fisetin): reduced | diabetes-induced proteinuria (urine albumin/creatinine ratio) (STZ-diabetic rats): reduced | increase of CML and MG adducts caused by high glucose ([5]; 25 mM glucose 5 days): blocked, at least in part | endogenous glycation of some proteins ([5]; low glucose medium (5 mM)): inhibits
